Test results reported in patent EP3578180A1, “MODULATORS OF SERYL-TRNA SYNTHASE AND PHARMACEUTICAL COMPOSITIONS COMPRISING THE SAME FOR INCREASING CELL HYPOXIC TOLERANCE” (Centre National de la Recherche Scientifique (CNRS), priority 2018, dated 2019).
Read-outs that look alike come from different tables or passages of the source.

Experiments:
PCT cells = assay: LIVE/DEAD cell viability of kidney cells under anoxia; type: cell-based, murine
Experimental: HT22 mouse hippocampal neuronal cells were cultured in Dulbecco's modified Eagle's medium (DMEM; Gibco) supplemented with 10% FBS (Gibco), 100U/ml streptomycin, 100U/ml penicillin at 37 °C in 5% CO2/95% air. Renal PCT cells were obtained from primary cultures of murine proximal tubule segments and cultured as previously described (Melis, N. et al. Targeting eIF5A Hypusination Prevents Anoxic Cell Death through Mitochondrial Silencing and Improves Kidney Transplant Outcome. J Am Soc Nephrol 28, 811-822, doi:10.1681/ASN.2016010012 (2017)). Hypoxic or anoxic conditions were created by maintaining cell cultures at 37°C in a sealed "Bug-Box" anaerobic workstation (Ruskin Technologies). Oxygen Glucose Deprivation (OGD) was induced on HT22 cells placing them in glucose-free Hepes balanced salt solution without glucose (HBSS: NaCl 116mM, KCl 5.4mM, CaCl2 1.8mM, MgSO4 0.8mM, NAH2PO4 1mM, NaHCO3 26.2mM,; pH 7.2-7.4) in an hypoxic chamber filled with 98.5% N2 and 1.5% CO2 at 37°C for 3h. Upon removal of the cultures from the chamber, the growth medium was changed back to normal medium.
The Fluorescent LIVE/DEAD® Cell Viability/Cytotoxicity Assay Kit (Invitrogen, France) was used on PCT cells (24-well plates) according to the manufacturer's protocol. Fluorescent micrographs were recorded using an observer D1 microscope (Zeiss).
150,000 PCT cells were seeded in Petri dishes and transfected 24 h later with 50 nM serRS pooled siRNAs (Sigma MISSION®esiRNA targeting mouse serRS: EMU081851) using Lipofectamine™ 3000 transfection reagent (Invitrogen). Cells were exposed to various experimental procedures 24-48 h post-transfection, as described in the text.

mice = assay: tMCAo stroke model, infarct volume (cresyl violet); type: in vivo; settings: SerHX pretreatment, '15 mM serHX group'; 60 min tMCAo; 24 h post-reperfusion; Fig.3C
Experimental: Male 7-week old C57BL/6J mice (Janvier France Breeding) were housed in a temperature- and humidity-controlled animal facility with a 12-h light-dark cycle. Food and water were available ad libitum. All animal care and use were performed with in accordance to the policies of European Community Directive 86/609/EEC. All efforts were made to minimize animal suffering and the number of animals used.
tMCAO was performed 30 min after the final injection using a 6-0 coated filament (Doccol), as previously described (Bourourou, M., Heurteaux, C. & Blondeau, N. Alpha-linolenic acid given as enteral or parenteral nutritional intervention against sensorimotor and cognitive deficits in a mouse model of ischemic stroke. Neuropharmacology 108, 60-72, doi:10.1016/j.neuropharm.2016.04.040 (2016)). Control of tMCAo severity and reperfusion was evaluated monitoring the regional cerebral blood flow by laser-Doppler flowmetry. Infarct volume (mm^3) was mesured 24 h post-reperfusion on coronal frozen brain sections ([…]) stained by 1% cresyl violet in 0.25% acetic acid using a computer image analysis system.
Animals were randomly assigned to vehicle or serHX groups prepared for 3 experimental protocols. Protocol 1: Vehicle and serHX were administrated intraperitoneally (416 mM, 150µl IP) 48, 24, 2h before a 60min tMCAo. […]

In the case of `C[C@@H]1C[C@@H]([C@H](O)CC2CC(=O)NC(=O)C2)C(=O)[C@@H](C)C1` [cycloheximide], the living kidney cells (PCT cells) is reported as 64% and the “renal cell survival after 24 h of anoxia (in words)” value (PCT cells) is reported as “increased renal cell survival”.
For `NC(CO)C(=O)NO` (centres unmarked) [serine hydroxamate], the “reduction of infarct volumes compared with the vehicle group” value (mice) was 30% and the living kidney cells (PCT cells; anoxia 24 h, <0.1% O2, cells treated with the inhibitor beforehand, CHX 1 to 10 pg/ml, Fig.1A) was 95%.
`N[C@@H](CO)C(=O)O` [serine] was tested, and the “renal cell survival after 24 h of anoxia (in words)” value (PCT cells; anoxia 24 h, <0.1% O2, Fig.1A) was “no effect”.
